Test [1] deals with mouse ear edema induced by PMA (phorbol myristate acetate). The experiment in a line: Acute contact dermatitis: TPA-induced auricular edema. To be noted: 500 μg/ear topical in TPDS, 30 min before TPA 0.01%, sacrifice 6 h later. Format: in vivo, CD1 mice. The procedure:
Groups of 5-6 CD1 mice (18-24 g) were used. • Administration of the Compounds All the macrolide derivatives were dissolved in Trans-phase Delivery System (TPDS), a vehicle containing benzyl alcohol 10%, acetone 40% and isopropanol 50%. 15 microliters of the compounds (500 μg), dissolved in TPDS, were applied topically to the internal surface of one ear; 30 minutes later, 12 microliters of a solution of tetradecanoyl phorbol acetate (TPA) at a concentration of 0.01% dissolved in acetone, were applied to the same area. Six hours later, the animals were sacrificed by inhalation of CO2. • Evaluation of the Results Two methods were used for assessing the auricular edema: • a) Weighing a defined portion of auricular pinna. • b) Measurement of auricular thickness using precision spring calipers. The degree of edema was calculated by subtracting the weight or the thickness of the untreated ear from that of the treated contralateral ear. To determine the degree of remission of the edema, the difference (weight or thickness) of the groups treated with TPA+macrolides relative to those treated with just TPA was compared. The activity of the macrolides was measured using the modified method of Zunic et al. (1998): MDL (Lysyl) GDP, a non-toxil muramyl dipeptide derivative inhibits cytokine production by activated macrophages and protects mice from phorbol ester- and oxazolone-induced inflammation (J. Invest. Dermatol., 111 (1), 77-82). The data relating to erythromycin and azithromycin refer to treatment in a single dose at 500 μg/ear.

Test [2] has as its system Streptococcus pyogenes ATCC 19615. The experiment in a line: Antibiotic activity at 128 μg/ml. In kind it is cell-based. The procedure: (§1) The MIC values were determined in liquid culture medium by the technique described in the “Manual of Clinical Microbiology, 7th edition (1999), American Society for Microbiology”.
In test [3] the test system is Staphylococcus aureus ATCC 6538. Nature of the test: Antibiotic activity at 128 μg/ml. Format: cell-based. As to the method: as §1
Test [4] concerns Enterococcus faecalis ATCC 29212. The experiment in a line: Antibiotic activity, MIC in liquid culture medium. In kind it is cell-based. As to conditions: ATCC29212, lowest concentration that completely inhibits visible growth, read-out: Enter. faec. ATCC 29212 MIC. The procedure: as §1
In test [5] the test system is accumulation of neutrophils in the rat lung induced by LPS. Nature of the test: LPS-induced pulmonary inflammation in the rat. Format: in vivo. To be noted: oral single dose 100, 40 and 10 μmol/kg one hour before LPS 0.4 mg/kg endotracheally; 20 h; erythromycin: single oral dose 130 μmol/kg. The procedure:
The rats were given a single dose of 0.4 mg/kg of LPS (E. coli, serotype 026:6) endotracheally, by the trans-oral route. Tracheal instillation was carried out under halothane anesthesia and 20 hours after the endotracheal administration of LPS/saline solution the animals were sacrificed by urethane overdose. • Washing
The lungs were washed with four aliquots each of 5 ml of saline solution with heparin 10 IU/ml. The cellular suspension was concentrated by low-speed centrifugation and the cellular pellet was suspended. • Cell Count and Differentiation
The total cell count was obtained using a hemocytometer.
The differential count was obtained from cytospin preparations stained with May-Grunwald-Giemsa (Tamaoki J., Tagaya E., Yamawaki I., Sakai N., Nagai A., Konno K., 1995. Effect of erythromycin on endotoxin-induced microvascular leakage in the rat trachea and lungs. Am. J. Respir. Crit. Care Med., 151, 1582-8). The rats received the test compounds orally at a dose of 100, 40 and 10 μmol/kg as a single dose administered orally one hour before exposure to LPS.
The ED/50 value is the dose that caused 50% reduction in the neutrophil count in the bronchial wash fluid.
The result for erythromycin relates to oral treatment in a single dose with 130 μmol/kg.

Test [6] deals with Staphylococcus aureus ATCC 29213. Nature of the test: Antibiotic activity, MIC in liquid culture medium. Format: cell-based. To be noted: ATCC29213, lowest concentration that completely inhibits visible growth, read-out: Sta. aureus ATCC 29213 MIC. As to the method: as §1
For test [7], the system named is Streptococcus pneumoniae ATCC 49619. Nature of the test: Antibiotic activity, MIC in liquid culture medium. In kind it is cell-based. As to conditions: ATCC49619, lowest concentration that completely inhibits visible growth, read-out: Str. pneum. ATTC 49619 MIC. The procedure:
as §1

Setting [8] is: method a: weighing a defined portion of auricular pinna.

Each structure is given as a SMILES string. In brackets after ≈: the same amount, converted by molar mass.

For orientation: inhibition in vivo means the drop in the measured response relative to a control, in per cent. Low readings indicate a weak effect, high ones a strong effect. Take `CC[C@H]1OC(=O)[C@H](C)[C@@H](O[C@H]2C[C@@](C)(OC)[C@@H](O)[C@H](C)O2)[C@H](C)[C@@H](O[C@@H]2O[C@H](C)C[C@H](N(C)C)[C@H]2O)[C@](C)(O)C[C@@H](C)CN(C)[C@H](C)[C@@H](O)[C@]1(C)O` [Azithromycin, reference compound]: the inhibition in vivo at 500 µg/ear in test [1] (setting [8]) was 40%.

What is called MIC is the least concentration at which growth counts as inhibited. With `CC[C@H]1OC(=O)[C@H](C)[C@@H](O)[C@H](C)[C@@H](O[C@@H]2O[C@H](C)C[C@H]([N+](C)(C)[O-])[C@H]2O)C(C)(O)C[C@@H](C)CN(C)[C@H](C)[C@@H](O)[C@]1(C)O` (stereo partly drawn) [Compound 1], the “Str. pyogen. ATTC 19615 128 (μg/ml)” value in test [2] was “not active”. In addition, the “Sta. aureus ATCC 6538 128 (μg/ml)” value in test [3] is reported as “not active”. Moreover, the MIC in test [4] is over 128 µg/mL. The inhibition in vivo at 500 µg/ear in test [1] (setting [8]) worked out at 56.7%. The “ED/50 (dose that caused 50% reduction in the neutrophil count in the bronchial wash fluid)” value in test [5] worked out at 10 µmol/kg.

For the molecule `CC[C@H]1OC(=O)[C@H](C)[C@@H](O)[C@H](C)[C@@H](O[C@@H]2O[C@H](C)C[C@H]([N+](C)(C)[O-])[C@H]2O)C(C)(O)C[C@@H](C)C[N+](C)([O-])[C@H](C)[C@@H](O)[C@]1(C)O` (stereo partly drawn) [Compound 2], the inhibition in vivo at 500 µg/ear in test [1] (setting [8]) is 25.3%.

`CC[C@H]1OC(=O)[C@H](C)[C@@H](O)[C@H](C)[C@@H](O[C@@H]2O[C@H](C)C=C[C@H]2O)C(C)(O)C[C@@H](C)CN(C)[C@H](C)[C@@H](O)[C@]1(C)O` (stereo partly drawn) [Compound 3] registered an inhibition in vivo at 500 µg/ear in test [1] (setting [8]) of 34.4%.

`CC[C@H]1OC(=O)[C@H](C)[C@@H](O)[C@H](C)[C@@H](O[C@@H]2O[C@H](C)CC[C@H]2O)C(C)(O)C[C@@H](C)CN(C)[C@H](C)[C@@H](O)[C@]1(C)O` (stereo partly drawn) [Compound 4] gave an inhibition in vivo at 500 µg/ear in test [1] (setting [8]) of 16.5%.

`CC[C@H]1OC(=O)[C@H](C)[C@@H](O)[C@H](C)[C@@H](O[C@@H]2O[C@H](C)C[C@H](N(C)C(C)=O)[C@H]2O)C(C)(O)C[C@@H](C)CN(C)[C@H](C)[C@@H](O)[C@]1(C)O` (stereo partly drawn) [Compound 5] returned an inhibition in vivo at 500 µg/ear in test [1] (setting [8]) of 40.5%.

For the molecule `CC[C@H]1OC(=O)[C@H](C)[C@@H](O)[C@H](C)[C@@H](O[C@@H]2O[C@H](C)C[C@H](N(C)C)[C@H]2O)C(C)(O)C[C@H](C)CN(CCCNCc2nccs2)[C@H](C)[C@@H](O)[C@]1(C)O` (stereo partly drawn) [Compound 6], the MIC in test [6] came out at 64 µg/mL (≈ 87.6 µM); in test [4], 64 µg/mL (≈ 87.6 µM); in test [7], 8 µg/mL (≈ 10.9 µM).

As to `CC[C@H]1OC(=O)[C@H](C)[C@@H](O)[C@H](C)[C@@H](O[C@@H]2O[C@H](C)C[C@H](N(C)C)[C@H]2O)C(C)(O)C[C@@H](C)CN(CCCNCc2c[nH]cn2)[C@H](C)[C@@H](O)[C@]1(C)O` (stereo partly drawn) [Compound 8], the inhibition in vivo at 500 µg/ear in test [1] (setting [8]) turned out to be 29.7%.

`CC[C@H]1OC(=O)[C@H](C)[C@@H](O)[C@H](C)[C@@H](O[C@@H]2O[C@H](C)C[C@H](N(C)C)[C@H]2O)C(C)(O)C[C@@H](C)CN(CCCNCCCCCCNCc2ccccc2)[C@H](C)[C@@H](O)[C@]1(C)O` (stereo partly drawn) [Compound 12]: the MIC was over 128 µg/mL in test [6], over 128 µg/mL in test [4] and 64 µg/mL (≈ 77.7 µM) in test [7]. The inhibition in vivo at 500 µg/ear in test [1] (method b: auricular thickness using precision spring calipers) is 39.5%.

Take `CC[C@H]1OC(=O)[C@H](C)[C@@H](O)[C@H](C)[C@@H](O[C@@H]2O[C@H](C)CC[C@H]2O)C(C)(O)C[C@@H](C)CN(CCCNCCNCc2nccs2)[C@H](C)[C@@H](O)[C@]1(C)O` (stereo partly drawn) [Compound 13]: the inhibition in vivo at 500 µg/ear in test [1] (setting [8]) worked out at 44.7%.

With `CC[C@H]1OC(=O)[C@H](C)[C@@H](O[C@H]2C[C@@](C)(OC)[C@@H](O)[C@H](C)O2)[C@H](C)[C@@H](O[C@@H]2O[C@H](C)C[C@H](N(C)C)[C@H]2O)[C@](C)(O)C[C@@H](C)C(=O)[C@H](C)[C@@H](O)[C@]1(C)O` [Erythromycin, erythromycin, reference compound], the MIC is 0.25 µg/mL (≈ 0.341 µM) in test [6], 1 µg/mL (≈ 1.36 µM) in test [4] and 0.12 µg/mL (≈ 0.164 µM) in test [7]. The same molecule returned an inhibition in vivo at 500 µg/ear in test [1] (setting [8]) of 42%. For the same molecule, the “ED/50 (dose that caused 50% reduction in the neutrophil count in the bronchial wash fluid)” value in test [5] was “not active”.

(Values after US7419961B2, “9a-azalides with anti-inflammatory activity” (Zambon S.p.A., priority 2002, dated 2008).)
